{"source": "patent US10188605B2", "about": "“Nanoparticles and nanoparticle compositions” (priority 2010, dated 2019)", "key": {"[1]": {"conditions": "versus camptothecin; cited from earlier work"}, "[2]": {"assay": "Critical micelle concentration of surfactant 1 (surface tension; pyrene I3/I1 fluorescence)", "assay_type": "physicochemical", "description": "Pyrene was used as a surrogate for a hydrophobic drug because of its environmentally sensitive fluorescence. […] The intensity ratio between the third (˜384 nm) and the first band (˜372 nm), in particular, is sensitive to changes in the environment. […] The CMC of the surfactant is about 1.4×10^−4 M according to surface tension measurement and 1.5×10^−4 M, according to FIG. 15."}, "[3]": {"assay": "Release of entrapped pyrene from SCMs by fluorescence (I3/I1 ratio)", "assay_type": "physicochemical", "conditions": "uncrosslinked reference", "description": "The intensity ratio between the third (˜384 nm) and the first band (˜372 nm), in particular, is sensitive to changes in the environment."}, "[4]": {"conditions": "in water at 20° C.; cited from earlier work"}}, "note": "Values joined by “and” are separate entries in the source; they are usually repeats but may differ in a detail not shown here. Equal values may be shown once."}
{"smiles": "CC[C@@](O)(C(=O)[O-])c1cc2n(c(=O)c1CO)Cc1cc3ccccc3nc1-2.[Na+]", "note": "[CAM-Na]", "values": [{"measurement": "biological activity relative to the parent drug", "setting": "[1]", "value": "one-tenth"}]}
{"smiles": "C#CC[N+](CC#C)(CC#C)Cc1ccc(OCCCCCCCCCCCC)cc1.[Br-]", "note": "[Compound 1, 4-(Dodecyloxy)benzyltripropargylammonium bromide]", "values": [{"measurement": "critical micelle concentration", "setting": "[2]; in water", "value": "150 µM and 140 µM"}, {"measurement": "CMC according to pyrene I3/I1 ratio (FIG. 15)", "setting": "[2]; pyrene fluorescence", "value": 150, "unit": "µM"}, {"measurement": "CMC according to surface tension measurement", "setting": "[2]; surface tension", "value": "about 1.4×10^−4 M"}, {"measurement": "pyrene I3/I1 in uncrosslinked surfactant below the CMC", "setting": "[3]", "value": 0.70}]}
{"smiles": "CCCCCCCCCCCC[N+](C)(C)C.[Br-]", "note": "[Dodecyltrimethyl ammonium bromide]", "values": [{"measurement": "micellar aggregation number", "setting": "[4]", "value": 55}]}
